ChEMBL document CHEMBL3734724, “Anticancer efficacy of unique pyridine-based tetraindoles” (Eur J Med Chem, 2015)
Active and inactive are the calls of the source. The rule behind the calls is not given here.

What was measured:
MDA-MB-231 [1] = experiment: Cell cycle arrest in human MDA-MB-231 cells assessed as accumulation at S phase at 1.6 uM after 24 hrs by propidium iodide staining-based flow cytometric analysis (reference value: 32 +/- 4%); format: functional
MDA-MB-231 [2] = experiment: Cell cycle arrest in human MDA-MB-231 cells assessed as accumulation at G0/G1 phase at 0.4 uM after 48 hrs by propidium iodide staining-based flow cytometric analysis (reference value: 57.8 +/- 0.7%); format: functional
MCF7 = experiment: Cytotoxicity against human MCF7 cells assessed as growth inhibition after 48 hrs by MTT assay; format: functional, cell-based; conditions: MCF7, 48 h
MDA-MB-231 [3] = experiment: Upregulation of phosphorylated chk2 protein expression in human MDA-MB-231 cells after 48 hrs by Western blot analysis; format: functional, cell-based
MDA-MB-231 [4] = experiment: Cell cycle arrest in human MDA-MB-231 cells assessed as accumulation at G2/M phase at 1.6 uM after 24 hrs by propidium iodide staining-based flow cytometric analysis (reference value: 12 +/- 2%); format: functional
[5] = Cytotoxicity against human M10 cells assessed as growth inhibition after 48 hrs by MTT assay; format: cell-based; conditions: M10, 48 h
MDA-MB-231 [6] = experiment: Induction of DNA damage in human MDA-MB-231 cells after 48 hrs by alkaline comet assay; format: functional, cell-based
MDA-MB-231 [7] = experiment: Cell cycle arrest in human MDA-MB-231 cells assessed as accumulation at G2/M phase at 1.6 uM after 48 hrs by propidium iodide staining-based flow cytometric analysis (reference value: 16 +/- 3%); format: functional
Mus musculus = experiment: Toxicity in nude mouse xenografted with luciferase-expressing human MDA-MB-231 cells assessed as change in body weight at 10 to 25 mg/kg, ip administered every other day measured weekly up to day 54 relative to vehicle-treated control; format: organism-based; conditions: in vivo
MDA-MB-231 [8] = experiment: Cell cycle arrest in human MDA-MB-231 cells assessed as accumulation at G0/G1 phase at 1.6 uM after 24 hrs by propidium iodide staining-based flow cytometric analysis (reference value: 57 +/- 6%); format: functional
MDA-MB-231 [9] = experiment: Antitumor activity against luciferase-expressing human MDA-MB-231 cells xenografted in ip dosed nude mouse assessed as tumor growth inhibition administered every other day measured on day 54; format: functional, organism-based
MDA-MB-231 [10] = experiment: Cell cycle arrest in human MDA-MB-231 cells assessed as accumulation at sub-G1 phase at 0.4 uM after 48 hrs by propidium iodide staining-based flow cytometric analysis relative to control; format: functional
MDA-MB-231 [11] = experiment: Induction of apoptosis in human MDA-MB-231 cells assessed as DNA ladder formation at 0.2 to 3.2 uM after 48 hrs; format: functional, cell-based
MDA-MB-231 [12] = experiment: Cell cycle arrest in human MDA-MB-231 cells assessed as accumulation at S phase at 0.4 uM after 24 hrs by propidium iodide staining-based flow cytometric analysis (reference value: 32 +/- 4%); format: functional
MDA-MB-231 [13] = experiment: Cell cycle arrest in human MDA-MB-231 cells assessed as accumulation at G2/M phase after 48 hrs by propidium iodide staining-based flow cytometric analysis; format: functional
MDA-MB-231 [14] = experiment: Upregulation of Bax protein expression in human MDA-MB-231 cells after 48 hrs by Western blot analysis; format: functional, cell-based
MDA-MB-231 [15] = experiment: Cell cycle arrest in human MDA-MB-231 cells assessed as accumulation at sub-G1 phase at 1.6 uM after 24 hrs by propidium iodide staining-based flow cytometric analysis relative to control; format: functional
[16] = Cytotoxicity against human Hs578T cells assessed as growth inhibition at 20 uM after 48 hrs by MTT assay relative to control; format: functional; conditions: Hs-578T, read-out: GI
MDA-MB-231 [17] = experiment: Antitumor activity against luciferase-expressing human MDA-MB-231 cells xenografted in nude mouse assessed as tumor growth inhibition at 25 mg/kg, ip administered every other day measured on day 54 relative to vehicle-treated control; format: functional; conditions: MDA-MB-231, ip, 1296 h, read-out: TGI
MDA-MB-231 [18] = experiment: Cytotoxicity against human MDA-MB-231 cells assessed as growth inhibition after 48 hrs by MTT assay; format: functional, cell-based; conditions: MDA-MB-231, 48 h
MDA-MB-231 [19] = experiment: Cell cycle arrest in human MDA-MB-231 cells assessed as accumulation at G0/G1 phase at 0.8 uM after 48 hrs by propidium iodide staining-based flow cytometric analysis (reference value: 57.8 +/- 0.7%); format: functional
MDA-MB-231 [20] = experiment: Cell cycle arrest in human MDA-MB-231 cells assessed as accumulation at sub-G1 phase at 0.8 uM after 24 hrs by propidium iodide staining-based flow cytometric analysis relative to control; format: functional
MDA-MB-231 [21] = experiment: Cell cycle arrest in human MDA-MB-231 cells assessed as accumulation at sub-G1 phase at 0.8 uM after 48 hrs by propidium iodide staining-based flow cytometric analysis relative to control; format: functional
MDA-MB-231 [22] = experiment: Cell cycle arrest in human MDA-MB-231 cells assessed as accumulation at G2/M phase at 0.8 uM after 48 hrs by propidium iodide staining-based flow cytometric analysis (reference value: 16 +/- 3%); format: functional
MDA-MB-231 [23] = experiment: Antimetastatic activity against luciferase-expressing human MDA-MB-231 cells xenografted in ip dosed nude mouse assessed as reduction of lung metastasis administered every other day measured on day 54; format: functional, organism-based
MDA-MB-231 [24] = experiment: Reduction of phospho-cdc2 (Tyr15) dephosphorylation in human MDA-MB-231 cells after 48 hrs by Western blot analysis; format: functional, cell-based
MDA-MB-231 [25] = experiment: Antimetastatic activity against luciferase-expressing human MDA-MB-231 cells xenografted in nude mouse assessed as suppression of lung metastasis by measuring reduction of lung weight at 25 mg/kg, ip administered every other day measured on day 54 relative to vehicle-treated control; format: functional; design: scale not given: the % may be the effect or the level left
MDA-MB-231 [26] = experiment: Cell cycle arrest in human MDA-MB-231 cells assessed as accumulation at G2/M phase at 0.4 uM after 48 hrs by propidium iodide staining-based flow cytometric analysis (reference value: 16 +/- 3%); format: functional
[27] = Cytotoxicity against human BT549 cells assessed as growth inhibition after 48 hrs by MTT assay; format: functional, cell-based; conditions: BT-549, 48 h
MDA-MB-231 [28] = experiment: Cell cycle arrest in human MDA-MB-231 cells assessed as accumulation at G2/M phase at 0.8 uM after 24 hrs by propidium iodide staining-based flow cytometric analysis (reference value: 12 +/- 2%); format: functional
[29] = Ratio of compound IC50 to SK228 IC50 for human M10 cells; format: ADME, cell-based; conditions: read-out: Ratio IC50
MDA-MB-231 [30] = experiment: Downregulation of cyclin A protein expression in human MDA-MB-231 cells at 0.4 to 3.2 uM after 48 hrs by Western blot analysis relative to control; format: functional, cell-based
MDA-MB-231 [31] = experiment: Cell cycle arrest in human MDA-MB-231 cells assessed as accumulation at sub-G1 phase at 1.6 uM after 48 hrs by propidium iodide staining-based flow cytometric analysis relative to control; format: functional
MDA-MB-231 [32] = experiment: Cell cycle arrest in human MDA-MB-231 cells assessed as accumulation at G0/G1 phase at 1.6 uM after 48 hrs by propidium iodide staining-based flow cytometric analysis (reference value: 57.8 +/- 0.7%); format: functional
MDA-MB-231 [33] = experiment: Upregulation of cyclin B1 protein expression in human MDA-MB-231 cells at 0.4 to 3.2 uM after 48 hrs by Western blot analysis relative to control; format: functional, cell-based
MDA-MB-231 [34] = experiment: Cell cycle arrest in human MDA-MB-231 cells assessed as accumulation at S phase at 1.6 uM after 48 hrs by propidium iodide staining-based flow cytometric analysis (reference value: 26 +/- 3%); format: functional

Question: For Oc1ccc2[nH]cc(C(c3ccc(C(c4c[nH]c5ccc(O)cc45)c4c[nH]c5ccc(O)cc45)nc3)c3c[nH]c4ccc(O)cc34)c2c1, which Activity (MDA-MB-231 [1]) is on record?
Answer: The Activity was 27%.

Question: What about the Activity (MDA-MB-231 [2]) of the same compound?
Answer: Its Activity is 54%.

Question: And the IC50 (MCF7)?
Answer: Its IC50 is 14 µM.

Question: What about the Activity (MDA-MB-231 [3]) of the same compound?
Answer: The Activity was “Dose-dependent effect”.

Question: And the Activity (MDA-MB-231 [4])?
Answer: Its Activity is 20%.

Question: What about the IC50 [5] of the same compound?
Answer: The IC50 was greater than 20 µM.

Question: And the Activity (MDA-MB-231 [6])?
Answer: The Activity was “Dose-dependent effect”.

Question: What about the Activity (MDA-MB-231 [7]) of the same compound?
Answer: Its Activity is 24%.

Question: What about the Activity (Mus musculus) of the same compound?
Answer: The Activity was “Non-toxic”.

Question: What about the Activity (MDA-MB-231 [8]) of the same compound?
Answer: The Activity was 53%.

Question: And the TGI (MDA-MB-231 [9])?
Answer: Its TGI is “Dose-dependent effect”.

Question: What about the Activity (MDA-MB-231 [10]) of the same compound?
Answer: Its Activity is 1.3%.

Question: What about the Activity (MDA-MB-231 [11]) of the same compound?
Answer: Its Activity is “Active”.

Question: What about the Activity (MDA-MB-231 [12]) of the same compound?
Answer: Its Activity is 33%.

Question: And the Activity (MDA-MB-231 [13])?
Answer: The Activity was “Dose-dependent effect”.

Question: What about the Activity (MDA-MB-231 [14]) of the same compound?
Answer: Its Activity is “Dose-dependent effect”.

Question: And the Activity (MDA-MB-231 [15])?
Answer: Its Activity is 16%.

Question: What about the inhibition of growth at 20 µM [16] of the same compound?
Answer: Its inhibition of growth at 20 µM is 25%.

Question: And the inhibition in vivo at 25 mg/kg (MDA-MB-231 [17])?
Answer: The inhibition in vivo at 25 mg/kg was 70%.

Question: What about the IC50 (MDA-MB-231 [18]) of the same compound?
Answer: The IC50 was 0.8 µM.

Question: What about the Activity (MDA-MB-231 [19]) of the same compound?
Answer: The Activity was 49%.

Question: What about the Activity (MDA-MB-231 [20]) of the same compound?
Answer: Its Activity is 1.5%.

Question: What about the Activity (MDA-MB-231 [21]) of the same compound?
Answer: Its Activity is 12%.

Question: What about the Activity (MDA-MB-231 [22]) of the same compound?
Answer: The Activity was 22%.

Question: What about the Activity (MDA-MB-231 [23]) of the same compound?
Answer: Its Activity is “Dose-dependent effect”.

Question: What about the Activity (MDA-MB-231 [24]) of the same compound?
Answer: Its Activity is “Dose-dependent effect”.

Question: What about the Activity (MDA-MB-231 [25]) of the same compound?
Answer: Its Activity is 22%.

Question: What about the Activity (MDA-MB-231 [26]) of the same compound?
Answer: Its Activity is 18%.

Question: And the IC50 [27]?
Answer: Its IC50 is 4 µM.

Question: What about the Activity (MDA-MB-231 [28]) of the same compound?
Answer: The Activity was 14.7%.

Question: And the selectivity ratio [29]?
Answer: The selectivity ratio was 4.

Question: What about the Activity (MDA-MB-231 [30]) of the same compound?
Answer: Its Activity is “Active”.

Question: And the Activity (MDA-MB-231 [31])?
Answer: Its Activity is 23%.

Question: What about the Activity (MDA-MB-231 [32]) of the same compound?
Answer: The Activity was 45%.

Question: What about the Activity (MDA-MB-231 [33]) of the same compound?
Answer: The Activity was “Active”.

Question: What about the Activity (MDA-MB-231 [34]) of the same compound?
Answer: Its Activity is 32%.
